# Results taken from USRE37781E1, “Substituted cyclic carbonyls and derivatives thereof useful as retroviral protease inhibitors” (DuPont Pharmaceuticals Company, priority 1991, dated 2002).
# pKi: −log10 of the molar value. Where two headings read alike, the source gives them in different places.
# Key:
# HIV protease = target: T1, HIV protease (Human immunodeficiency virus type 1 group M subtype B, UniProt P04585); test: biochemical; parameters: species or system HIV-1
# T1 construct: plasmid containing HIV protease under the control of an inducible T7 promoter; made in house; host or cells: E. coli (inclusion bodies, T7 promoter)
# Procedure: HIV Protease Inhibition Assay—Spectroscopic Method
# Inclusion bodies were solubilized in 8M urea, 50 mM tris pH 8.0. Protease activity was recovered by dilution 20-fold into buffer containing 50 mM sodium acetate pH 5.5, 1 mM EDTA, 10% glycerol and 5% ethylene glycol. Enzyme was used at a final concentration of 1.0-10 ug/ml.
# Stock solutions of 10 mM were prepared in DMSO.
# All further dilutions were done in DMSO.
# HIV-1 (RF) in MT-2 cells = test: microbe, parasite or virus in culture; type: cell-based
# Outline: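 HIV-1 laboratory strains (RF, MN, IIIB) grown in H9 cells in RPMI 1640 with 5% FCS; infections in MT-2 cells. Viral RNA quantified by hybridization with biotinylated gag/pol capture probes on streptavidin plates and alkaline phosphatase-conjugated reporter probes; BH10 gag-pol in vitro transcripts serve as RNA standards.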
# [1] = target: single-chain tethered dimer of HIV protease (Human immunodeficiency virus 1, UniProt P04585); test: biochemical; type: biochemical; parameters: fused on or other part: A second copy of the same protease unit is joined to the first by a short peptide tether, giving one polypeptide; settings: read-out: HPLC K1, Table 2d
# [2] = Human immunodeficiency virus 1, MT2, Table 1e, read-out: IC90
# [3] = Human immunodeficiency virus 1, MT2, 24 h, Table 1d, upper part, read-out: IC90
# [4] = second table headed Table 2A, read-out: Ki
# [5] = Human immunodeficiency virus 1, MT2, 48 h, Table 2d, class symbols, read-out: IC90
# [6] = Human immunodeficiency virus 1, MT2, 48 h, Table 2d, HIV RNA assay, read-out: IC90
# [7] = HIV protease inhibition, HPLC method
compound,measurement,setting,value
O=C1N(Cc2ccccn2)C(Cc2ccccc2)C(O)C(O)C(Cc2ccccc2)N1Cc1ccccn1 (centres unmarked) [Example 1AR],pKi,HIV protease; Ki,6.00 to 8.00
CC(C)C(NCCN1C(=O)N(CCO)C(Cc2ccccc2)C(O)C(O)C1Cc1ccccc1)C(=O)OCc1ccccc1 (centres unmarked) [Example 1L],pKi,"HIV protease; Table 1a, read-out: Ki",< 6.00
O=C1N(CC2CC2)C(C(F)Cc2ccccc2)[C@@H](O)[C@@H](Cc2ccccc2)N1CC1CC1 (some centres unmarked) [Example 8B],IC90,HIV-1 (RF) in MT-2 cells; [2],< 10 µg/mL
same,pKi,"HIV protease; Table 1e, read-out: Ki",6.00 to 8.00
O=C1OC2C(O1)C(Cc1ccccc1)N(CC1CC1)C(=O)N(CC1CC1)C2Cc1ccccc1 (centres unmarked) [Example 7G],IC90,HIV-1 (RF) in MT-2 cells; [3],< 10 µg/mL
same,pKi,HIV protease; Ki,6.00 to 8.00
C=CCN1C(=O)N(CC=C)[C@H](Cc2ccccc2)[C@@H](O)[C@H](O)[C@H]1Cc1ccccc1 [Example 1G],pKi,"HIV protease; Ki, Table 1a",6.00 to 8.00
C=CCN1C(=O)N(CC2CC2)C(Cc2ccccc2)C(O)C(O)C1Cc1ccccc1 (centres unmarked) [Example 1AW],pKi,"HIV protease; Table 1a, read-out: Ki",> 8.00
O=C1N(Cc2ccc(F)cc2)C(Cc2ccccc2)C(O)C(O)C(Cc2ccccc2)N1Cc1ccc(F)cc1 (centres unmarked) [Example 2E],IC90,"HIV-1 (RF) in MT-2 cells; Human immunodeficiency virus 1, MT2, Table 2A, read-out: IC90",< 10 µg/mL
same,IC90,"HIV-1 (RF) in MT-2 cells; Human immunodeficiency virus 1, MT2, second table headed Table 2A, read-out: IC90",< 10 µg/mL
same,pKi,"HIV protease; Table 2A, read-out: Ki",> 8.00
same,pKi,HIV protease; [4],> 8.00
CCCN1C(=O)N(CCC)C(Cc2ccccc2)C(O)C(O)C1Cc1ccccc1 (centres unmarked) [Example 1V],pKi,HIV protease; Ki,> 8.00
CC1(C)OC2C(O1)C(Cc1ccccc1)N(Cc1ccc3ccccc3c1)C(=O)N(Cc1ccc3ccccc3c1)C2Cc1ccccc1 (centres unmarked) [Example 7R],IC90,HIV-1 (RF) in MT-2 cells; [3],> 100 µg/mL
same,pKi,"HIV protease; Table 1d, upper part, read-out: Ki",< 6.00
COCCOCCN1C(=O)N(CCOCCOC)C(Cc2ccccc2)C(O)C(O)C1Cc1ccccc1 (centres unmarked) [Example 1J],pKi,"HIV protease; Table 1a, read-out: Ki",< 6.00
[N-]=[N+]=NC(Cc1ccccc1)C1C(O)C(Cc2ccccc2)N(Cc2ccc3ccccc3c2)C(=O)N1Cc1ccc2ccccc2c1 (centres unmarked) [Example 7Y],IC90,HIV-1 (RF) in MT-2 cells; [2],> 100 µg/mL
same,pKi,"HIV protease; Table 1e, read-out: Ki",6.00 to 8.00
O=C1OC2C(O1)C(Cc1ccccc1)N(Cc1ccc3ccccc3c1)C(=O)N(Cc1ccc3ccccc3c1)C2Cc1ccccc1 (centres unmarked) [Example 7L],IC90,HIV-1 (RF) in MT-2 cells; [3],> 100 µg/mL
same,pKi,HIV protease; Ki,6.00 to 8.00
N#Cc1cccc(CN2C(=O)N(Cc3cccc(C#N)c3)[C@H](Cc3ccccc3)[C@H](O)C2CCc2ccccc2)c1 (some centres unmarked) [Example 8O],IC90,HIV-1 (RF) in MT-2 cells; Table 1e,+++ (+++=<10 μg/mL)
same,pKi,HIV protease; Ki,6.00 to 8.00
O=C1N(Cc2ccncc2)C(Cc2ccccc2)C(O)C(O)C(Cc2ccccc2)N1Cc1ccncc1 (centres unmarked) [Example 1AI],pKi,"HIV protease; Table 1a, read-out: Ki",6.00 to 8.00
CC(C)CCCC(C)CCN1C(=O)NC(Cc2ccccc2)C(O)C(O)C1Cc1ccccc1 (centres unmarked) [Example 1Q],pKi,"HIV protease; Table 1a, read-out: Ki",6.00 to 8.00
COCCOCO[C@H]1[C@@H](Cc2ccccc2)N(Cc2ccc3ccccc3c2)C(=O)N(Cc2ccc3ccccc3c2)[C@@H]1C(F)Cc1ccccc1 (some centres unmarked) [Example 8D],pKi,"HIV protease; Table 1e, read-out: Ki",6.00 to 8.00
CC(C)=CCN1C(=O)N(C)C(Cc2ccccc2)C(O)C(O)C1Cc1ccccc1 (centres unmarked) [Example 2D],pKi,"HIV protease; Table 2A, read-out: Ki",6.00 to 8.00
same,pKi,HIV protease; [4],6.00 to 8.00
C=CCN1C(=O)N(CC=C)[C@H](Cc2ccccc2)[C@H](O)[C@H]1[C@H](O)Cc1ccccc1 [Example 8AA],pKi,"HIV protease; Table 1e, read-out: Ki",6.00 to 8.00
CC(C)=CCN1C(=O)NC(Cc2ccccc2)C(O)C(O)C1Cc1ccccc1 (centres unmarked) [Example 1AE],pKi,"HIV protease; Table 1a, read-out: Ki",> 8.00
C=CCN1C(=O)N(CC=C)C(Cc2ccccc2)C(O)C(O)C1Cc1ccccc1 (centres unmarked) [Example 1D],pKi,"HIV protease; Table 1a, read-out: Ki",< 6.00
O=C1NC(Cc2ccccc2)C(O)C(O)C(Cc2ccccc2)N1 (centres unmarked) [Example 1E],pKi,"HIV protease; Table 1a, read-out: Ki",< 6.00
CC(C)C(NCCN1C(=O)N(CCNC(C(=O)OCc2ccccc2)C(C)C)C(Cc2ccccc2)C(O)C(O)C1Cc1ccccc1)C(=O)OCc1ccccc1 (centres unmarked) [Example 1U],pKi,"HIV protease; Table 1a, read-out: Ki",< 6.00
O=C1N(CCCc2ccccc2)C(Cc2ccccc2)C(O)C(O)C(Cc2ccccc2)N1CCCc1ccccc1 (centres unmarked) [Example 1AS],pKi,"HIV protease; Table 1a, read-out: Ki",6.00 to 8.00
C=CCN1C(=O)N(CC=C)C(Cc2ccccc2)C(O)C(O)C1Cc1ccccc1 (centres unmarked) [Example 1H],pKi,"HIV protease; Table 1a, read-out: Ki",< 6.00
CN1C(=O)N(Cc2ccccc2)C(Cc2ccccc2)C(O)C(O)C1Cc1ccccc1 (centres unmarked) [Example 1AY],pKi,"HIV protease; Table 1a, read-out: Ki",6.00 to 8.00
CC(C)=CCN1C(=O)N(C)C(Cc2ccccc2)C(O)C(O)C1Cc1ccccc1 (centres unmarked) [Example 1BD],pKi,"HIV protease; Table 1a, read-out: Ki",6.00 to 8.00
O=C1N(Cc2ccccc2)C(Cc2ccccc2)C(O)C(O)C(Cc2ccccc2)N1Cc1ccccc1 (centres unmarked) [Example 1I],pKi,HIV protease; Ki,< 6.00
CC(C)CN1C(=O)N(CC(C)C)C(Cc2ccccc2)C(O)C(O)C1Cc1ccccc1 (centres unmarked) [Example 1AO],pKi,"HIV protease; Table 1a, read-out: Ki",6.00 to 8.00
COCCOCCOCCN1C(=O)NC(Cc2ccccc2)C(O)C(O)C1Cc1ccccc1 (centres unmarked) [Example 1R],pKi,"HIV protease; Table 1a, read-out: Ki",< 6.00
CC(C)C(NCCN1C(=O)N(CCO)C(Cc2ccccc2)C(O)C(O)C1Cc1ccccc1)C(=O)OCc1ccccc1 (centres unmarked) [Example 1T],pKi,"HIV protease; Table 1a, read-out: Ki",6.00 to 8.00
CC(C)=CCCC(C)=CCN1C(=O)N(CC=C(C)CCC=C(C)C)C(Cc2ccccc2)C(O)C(O)C1Cc1ccccc1 (centres unmarked) [Example 1K],pKi,"HIV protease; Table 1a, read-out: Ki",< 6.00
C=CCN1C(=O)N(CC=C(C)C)C(Cc2ccccc2)C(O)C(O)C1Cc1ccccc1 (centres unmarked) [Example 1AT],pKi,"HIV protease; Table 1a, read-out: Ki",> 8.00
O=C1N(Cc2cccc(O)c2)C(Cc2ccccc2)C(O)C(Cc2ccccc2)N1Cc1cccc(O)c1 (centres unmarked) [Example 22A],pKi,"HIV protease; Table 2k, read-out: Ki",6.00 to 8.00
O=C1N(Cc2ccccc2)C(Cc2ccccc2)C(OCc2ccccc2)C2C(Cc3ccccc3)N12 (centres unmarked) [Example 21C],pKi,"HIV protease; Table 2j, read-out: Ki",6.00 to 8.00
N=C(N)c1cccc(CN2C(=O)N(Cc3cccc(C(=N)N)c3)C(Cc3ccccc3)C(O)C(O)C2Cc2ccccc2)c1 (centres unmarked) [11A],IC90,HIV-1 (RF) in MT-2 cells; [5],> 100 µg/mL
same,melting point,,224 to 226 °C
same,pKi,[1]; class symbols,6.00 to 8.00
CC(=O)c1cccc(CN2C(=O)N(Cc3cccc(C(C)=O)c3)C(Cc3ccccc3)C(O)C(O)C2Cc2ccccc2)c1 (centres unmarked) [Example 9P],IC90,HIV-1 (RF) in MT-2 cells; [5],< 10 µg/mL
same,melting point,,158 to 159 °C
same,pKi,[1]; class symbols,6.00 to 8.00
CC(C)CCCC(C)CCN1C(=O)N(CCC(C)CCCC(C)C)C(Cc2ccccc2)C(O)C(O)C1Cc1ccccc1 (centres unmarked) [Example 1N],pKi,"HIV protease; Table 1a, read-out: Ki",6.00 to 8.00
CCCNC(=O)c1cccc(CN2C(=O)N(Cc3cccc(C(=O)O)c3)C(Cc3ccccc3)C(O)C(O)C2Cc2ccccc2)c1 (centres unmarked) [15WO],IC90,HIV-1 (RF) in MT-2 cells; [5],< 10 µg/mL
same,melting point,,151 to 153 °C
same,pKi,[1]; class symbols,> 8.00
O=C1N(Cc2cccc(-c3nnn[nH]3)c2)C(Cc2ccccc2)C(O)C(O)C(Cc2ccccc2)N1CC1CC1 (centres unmarked) [9U],IC90,HIV-1 (RF) in MT-2 cells; [5],< 10 µg/mL
same,melting point,,171.6 °C
same,pKi,[1]; class symbols,> 8.00
O=C1N(Cc2cccc(OCc3ccccc3)c2)C(Cc2ccccc2)C(O)C(C(F)Cc2ccccc2)N1Cc1cccc(OCc2ccccc2)c1 (centres unmarked) [Example 8E],pKi,"HIV protease; Table 1e, read-out: Ki",6.00 to 8.00
CONC(=O)c1cccc(CN2C(=O)N(Cc3cccc(C(=O)NOC)c3)C(Cc3ccccc3)C(O)C(O)C2Cc2ccccc2)c1 (centres unmarked) [10R],IC90,HIV-1 (RF) in MT-2 cells; [5],< 10 µg/mL
same,melting point,,150 to 158 °C
same,pKi,[1]; class symbols,> 8.00
O=C(O)c1cccc(CN2C(=O)N(CC3CC3)C(Cc3ccccc3)C(O)C(O)C2Cc2ccccc2)c1 (centres unmarked) [15WQ],IC90,HIV-1 (RF) in MT-2 cells; [5],< 10 µg/mL
same,melting point,,135 to 137 °C
same,pKi,[1]; class symbols,> 8.00
O=C1N(CC=Cc2ccccc2)C(Cc2ccccc2)C(O)C(O)C(Cc2ccccc2)N1CC=Cc1ccccc1 (centres unmarked) [Example 1AU],pKi,"HIV protease; Table 1a, read-out: Ki",> 8.00
NC(=NO)c1cccc(CN2C(=O)N(CC3CC3)C(Cc3ccccc3)C(O)C(O)C2Cc2ccccc2)c1 (centres unmarked) [15AF],IC90,HIV-1 (RF) in MT-2 cells; [6],< 10 µg/mL
same,melting point,,183 to 186 °C
same,pKi,[1]; [7],> 8.00
O=C1N(Cc2ccc(O)c(O)c2)C(Cc2ccccc2)C(O)C(O)C(Cc2ccccc2)N1CC1CC1 (centres unmarked) [15AG],IC90,HIV-1 (RF) in MT-2 cells; [6],< 10 µg/mL
same,melting point,,141 °C
same,pKi,[1]; [7],> 8.00
COC(=O)c1cccc(CN2C(=O)N(Cc3cccc(-c4cc[nH]n4)c3)C(Cc3ccccc3)C(O)C(O)C2Cc2ccccc2)c1 (centres unmarked) [Example 15BP],IC90,HIV-1 (RF) in MT-2 cells; [6],< 10 µg/mL
same,melting point,,127 to 130 °C
same,pKi,[1]; [7],> 8.00
O=C1N(Cc2ccc3cn[nH]c3c2)C(Cc2ccccc2)C(O)C(O)C(Cc2ccccc2)N1Cc1ccc2cn[nH]c2c1 (centres unmarked) [15CY],IC90,HIV-1 (RF) in MT-2 cells; [6],< 10 µg/mL
same,melting point,,170 to 175 °C
same,pKi,[1]; [7],> 8.00
Nc1ccc(CN2C(=O)N(Cc3ccc(N)cc3)C(Cc3ccccc3)C(O)C(O)C2Cc2ccccc2)cc1 (centres unmarked) [15CQ],IC90,HIV-1 (RF) in MT-2 cells; [6],< 10 µg/mL
same,melting point,,114 to 116 °C
same,pKi,[1]; [7],> 8.00
